Source: the supplement of paper PMC10883282
± gives the standard deviation of the averaged measurements.

How the values were obtained:
Assay in all cases: relative viability vs DMSO control (72 h) (fraction); higher = more viable cells
G401 = tested on: G401
How it was run: (§1)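 Densities for seeding sarcoma cell lines into 384-well plates were set to give 80–90% confluence. After 24 h, 2.5 µl of serially diluted compound from source plates of 10 mM to 0.0002 mM went in, and plates stayed 72 h at 37 °C in 5% CO2 with 0.1% DMSO vehicle and a 5 µM positive control. Percent growth from ATPLite readings, averaged over up to triplicate wells, served as relative viability, rescaled so 1 means full and 0 means none.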

HT1080 = tested on: HT1080
How it was run: as §1

KHOS-NP = tested on: KHOS-NP
How it was run: as §1

MES-SA = tested on: MES-SA
How it was run: as §1

RD-ES = tested on: RD-ES
How it was run: as §1

RD = tested on: RD
How it was run: as §1

SK-ES-1 = tested on: SK-ES-1
How it was run: as §1

SK-LMS-1 = tested on: SK-LMS-1
How it was run: as §1

SW1353 = tested on: SW1353
How it was run: as §1

SW684 = tested on: SW684
How it was run: as §1

SW872 = tested on: SW872
How it was run: as §1

VA-ES-BJ = tested on: VA-ES-BJ
How it was run: as §1

CN1CCN(c2ccc(C(=O)Nc3n[nH]c4ccc(Cc5cc(F)cc(F)c5)cc34)c(NC3CCOCC3)c2)CC1 [Entrectinib]
Conditions	relative viability
G401, 0.00017 µM	1.04 ± 0.037
G401, 0.00051 µM	1.01 ± 0.035
G401, 0.00152 µM	1.057 ± 0.0092
G401, 0.00457 µM	1.07 ± 0.021
G401, 0.01372 µM	1.03 ± 0.038
G401, 0.04115 µM	1.01 ± 0.016
G401, 0.1235 µM	1.011 ± 0.0094
G401, 0.3704 µM	0.979 ± 0.015
G401, 1.111 µM	0.87 ± 0.064
G401, 3.333 µM	0.651 ± 0.058
G401, 10 µM	0.163 ± 0.13
HT1080, 0.00017 µM	1.095 ± 0.0097
HT1080, 0.00051 µM	1.13 ± 0.025
HT1080, 0.00152 µM	1.1 ± 0.031
HT1080, 0.00457 µM	1.08 ± 0.015
HT1080, 0.01372 µM	1.08 ± 0.026
HT1080, 0.04115 µM	1.09 ± 0.07
HT1080, 0.1235 µM	1.08 ± 0.0091
HT1080, 0.3704 µM	1.06 ± 0.026
HT1080, 1.111 µM	1.06 ± 0.021
HT1080, 3.333 µM	0.952 ± 0.034
HT1080, 10 µM	0.349 ± 0.045
KHOS-NP, 0.00017 µM	1.08 ± 0.016
KHOS-NP, 0.00051 µM	1.1 ± 0.036
KHOS-NP, 0.00152 µM	1.07 ± 0.039
KHOS-NP, 0.00457 µM	1.08 ± 0.011
KHOS-NP, 0.01372 µM	1.06 ± 0.022
KHOS-NP, 0.04115 µM	1.05 ± 0.031
KHOS-NP, 0.1235 µM	1.04 ± 0.013
KHOS-NP, 0.3704 µM	1.03 ± 0.013
KHOS-NP, 1.111 µM	1.01 ± 0.017
KHOS-NP, 3.333 µM	0.98 ± 0.044
KHOS-NP, 10 µM	0.602 ± 0.056
MES-SA, 0.00017 µM	0.942 ± 0.038
MES-SA, 0.00051 µM	0.942 ± 0.031
MES-SA, 0.00152 µM	0.931 ± 0.049
MES-SA, 0.00457 µM	0.925 ± 0.049
MES-SA, 0.01372 µM	0.899 ± 0.013
MES-SA, 0.04115 µM	0.904 ± 0.033
MES-SA, 0.1235 µM	0.892 ± 0.021
MES-SA, 0.3704 µM	0.893 ± 0.02
MES-SA, 1.111 µM	0.821 ± 0.015
MES-SA, 3.333 µM	0.702 ± 0.021
MES-SA, 10 µM	0.364 ± 0.045
RD, 0.00017 µM	1.08 ± 0.049
RD, 0.00051 µM	1.13 ± 0.026
RD, 0.00152 µM	1.14 ± 0.078
RD, 0.00457 µM	1.13 ± 0.065
RD, 0.01372 µM	1.11 ± 0.068
RD, 0.04115 µM	1.1 ± 0.09
RD, 0.1235 µM	1.11 ± 0.067
RD, 0.3704 µM	1.07 ± 0.052
RD, 1.111 µM	0.934 ± 0.051
RD, 3.333 µM	0.589 ± 0.014
RD, 10 µM	0.0669 ± 0.029
RD-ES, 0.00017 µM	0.991 ± 0.016
RD-ES, 0.00051 µM	1.02 ± 0.044
RD-ES, 0.00152 µM	0.986 ± 0.021
RD-ES, 0.00457 µM	0.986 ± 0.018
RD-ES, 0.01372 µM	0.992 ± 0.027
RD-ES, 0.04115 µM	0.997 ± 0.022
RD-ES, 0.1235 µM	0.99 ± 0.011
RD-ES, 0.3704 µM	0.929 ± 0.023
RD-ES, 1.111 µM	0.776 ± 0.044
RD-ES, 3.333 µM	0.552 ± 0.029
RD-ES, 10 µM	0.0781 ± 0.017
SK-ES-1, 0.00017 µM	1.09 ± 0.025
SK-ES-1, 0.00051 µM	1.04 ± 0.032
SK-ES-1, 0.00152 µM	1.05 ± 0.047
SK-ES-1, 0.00457 µM	1.06 ± 0.049
SK-ES-1, 0.01372 µM	1.03 ± 0.057
SK-ES-1, 0.04115 µM	1.1 ± 0.013
SK-ES-1, 0.1235 µM	1.05 ± 0.034
SK-ES-1, 0.3704 µM	0.959 ± 0.046
SK-ES-1, 1.111 µM	0.844 ± 0.038
SK-ES-1, 3.333 µM	0.465 ± 0.035
SK-ES-1, 10 µM	0.105 ± 0.0077
SK-LMS-1, 0.00017 µM	1.13 ± 0.025
SK-LMS-1, 0.00051 µM	1.1 ± 0.037
SK-LMS-1, 0.00152 µM	1.12 ± 0.035
SK-LMS-1, 0.00457 µM	1.13 ± 0.032
SK-LMS-1, 0.01372 µM	1.1 ± 0.038
SK-LMS-1, 0.04115 µM	1.07 ± 0.016
SK-LMS-1, 0.1235 µM	1.07 ± 0.024
SK-LMS-1, 0.3704 µM	1.072 ± 0.0048
SK-LMS-1, 1.111 µM	1.03 ± 0.029
SK-LMS-1, 3.333 µM	0.856 ± 0.053
SK-LMS-1, 10 µM	0.0143 ± 0.0037
SW684, 0.00017 µM	1.14 ± 0.056
SW684, 0.00051 µM	1.17 ± 0.018
SW684, 0.00152 µM	1.14 ± 0.029
SW684, 0.00457 µM	1.2 ± 0.041
SW684, 0.01372 µM	1.15 ± 0.039
SW684, 0.04115 µM	1.15 ± 0.046
SW684, 0.1235 µM	1.16 ± 0.021
SW684, 0.3704 µM	1.12 ± 0.045
SW684, 1.111 µM	1.1 ± 0.086
SW684, 3.333 µM	0.971 ± 0.017
SW684, 10 µM	-0.0109 ± 0.0017
SW872, 0.00017 µM	1.11 ± 0.048
SW872, 0.00051 µM	1.09 ± 0.056
SW872, 0.00152 µM	1.1 ± 0.095
SW872, 0.00457 µM	1.07 ± 0.064
SW872, 0.01372 µM	1.05 ± 0.09
SW872, 0.04115 µM	1.05 ± 0.061
SW872, 0.1235 µM	1.03 ± 0.09
SW872, 0.3704 µM	0.961 ± 0.047
SW872, 1.111 µM	0.887 ± 0.076
SW872, 3.333 µM	0.66 ± 0.088
SW872, 10 µM	0.218 ± 0.054
SW1353, 0.00017 µM	1.04 ± 0.011
SW1353, 0.00051 µM	1.05 ± 0.021
SW1353, 0.00152 µM	1.01 ± 0.017
SW1353, 0.00457 µM	1.01 ± 0.015
SW1353, 0.01372 µM	0.976 ± 0.012
SW1353, 0.04115 µM	0.985 ± 0.025
SW1353, 0.1235 µM	0.9886 ± 0.0051
SW1353, 0.3704 µM	0.9517 ± 0.0048
SW1353, 1.111 µM	0.953 ± 0.034
SW1353, 3.333 µM	0.782 ± 0.058
SW1353, 10 µM	0.0075 ± 0.00089
VA-ES-BJ, 0.00017 µM	1.09 ± 0.032
VA-ES-BJ, 0.00051 µM	1.08 ± 0.02
VA-ES-BJ, 0.00152 µM	1.06 ± 0.043
VA-ES-BJ, 0.00457 µM	1.05 ± 0.033
VA-ES-BJ, 0.01372 µM	1.06 ± 0.047
VA-ES-BJ, 0.04115 µM	1.03 ± 0.026
VA-ES-BJ, 0.1235 µM	1.022 ± 0.0078
VA-ES-BJ, 0.3704 µM	1.01 ± 0.015
VA-ES-BJ, 1.111 µM	0.976 ± 0.03
VA-ES-BJ, 3.333 µM	0.894 ± 0.027
VA-ES-BJ, 10 µM	0.575 ± 0.052
